Test results as given in ChEMBL document CHEMBL1177848, “Synthesis of novel 6,6a,7,8-tetrahydro-5H-naphtho[1,2-e]pyrimido[4,5-b][1,4]diazepines under microwave irradiation as potential anti-tumor agents” (2010).
Calls of active or inactive are those of the source.

What was measured:
Assay type in all cases: functional, cell-based
RPMI-8226 = assay: Growth inhibition of human RPMI8226 cells at 1 uM after 48 hrs by sulforhodamine B assay
SR = assay: Growth inhibition of human SR cells at 1 uM after 48 hrs by sulforhodamine B assay
CCRF-CEM = assay: Growth inhibition of human CCRF-CEM cells at 1 uM after 48 hrs by sulforhodamine B assay
HL-60 = assay: Growth inhibition of human HL-60(TB) cells at 1 uM after 48 hrs by sulforhodamine B assay
K562 = assay: Growth inhibition of human K562 cells at 1 uM after 48 hrs by sulforhodamine B assay
MOLT-4 = assay: Growth inhibition of human MOLT4 cells at 1 uM after 48 hrs by sulforhodamine B assay
EKVX = assay: Growth inhibition of human EKVX cells at 1 uM after 48 hrs by sulforhodamine B assay
HOP-92 = assay: Growth inhibition of human HOP92 cells at 1 uM after 48 hrs by sulforhodamine B assay
NCI-H226 = assay: Growth inhibition of human NCI-H226 cells at 1 uM after 48 hrs by sulforhodamine B assay
NCI-H23 = assay: Growth inhibition of human NCI-H23 cells at 1 uM after 48 hrs by sulforhodamine B assay
NCI-H460 = assay: Growth inhibition of human NCI-H460 cells at 1 uM after 48 hrs by sulforhodamine B assay
NCI-H522 = assay: Growth inhibition of human NCI-H522 cells at 1 uM after 48 hrs by sulforhodamine B assay
HOP-62 = assay: Growth inhibition of human HOP62 cells at 1 uM after 48 hrs by sulforhodamine B assay
NCI-H322M = assay: Growth inhibition of human […] cells at 1 uM after 48 hrs by sulforhodamine B assay
A549 = assay: Growth inhibition of human A549 cells at 1 uM after 48 hrs by sulforhodamine B assay
COLO 205 = assay: Growth inhibition of human COLO205 cells at 1 uM after 48 hrs by sulforhodamine B assay
HCT-116 = assay: Growth inhibition of human HCT116 cells at 1 uM after 48 hrs by sulforhodamine B assay
HCT-15 = assay: Growth inhibition of human HCT15 cells at 1 uM after 48 hrs by sulforhodamine B assay
HT-29 = assay: Growth inhibition of human HT-29 cells at 1 uM after 48 hrs by sulforhodamine B assay
KM12 = assay: Growth inhibition of human KM12 cells at 1 uM after 48 hrs by sulforhodamine B assay
SW-620 = assay: Growth inhibition of human SW620 cells at 1 uM after 48 hrs by sulforhodamine B assay
HCC 2998 = assay: Growth inhibition of human HCC2998 cells at 1 uM after 48 hrs by sulforhodamine B assay
SF-295 = assay: Growth inhibition of human SF295 cells at 1 uM after 48 hrs by sulforhodamine B assay
SF-539 = assay: Growth inhibition of human SF539 cells at 1 uM after 48 hrs by sulforhodamine B assay
U-251 = assay: Growth inhibition of human U251 cells at 1 uM after 48 hrs by sulforhodamine B assay
SF-268 = assay: Growth inhibition of human SF268 cells at 1 uM after 48 hrs by sulforhodamine B assay
SF530 = assay: Growth inhibition of human SF530 cells at 1 uM after 48 hrs by sulforhodamine B assay
SNB-75 = assay: Growth inhibition of human SNB75 cells at 1 uM after 48 hrs by sulforhodamine B assay
LOX IMVI = assay: Growth inhibition of human LOXIMVI cells at 1 uM after 48 hrs by sulforhodamine B assay
Malme-3M = assay: Growth inhibition of human MALME-3M cells at 1 uM after 48 hrs by sulforhodamine B assay
MDA-MB-435 = assay: Growth inhibition of human MDA-MB-435 cells at 1 uM after 48 hrs by sulforhodamine B assay
SK-MEL-5 = assay: Growth inhibition of human SK-MEL-5 cells at 1 uM after 48 hrs by sulforhodamine B assay
UACC-257 = assay: Growth inhibition of human UACC257 cells at 1 uM after 48 hrs by sulforhodamine B assay
UACC-62 = assay: Growth inhibition of human UACC62 cells at 1 uM after 48 hrs by sulforhodamine B assay
SK-MEL-2 = assay: Growth inhibition of human SK-MEL-2 cells at 1 uM after 48 hrs by sulforhodamine B assay
M14 = assay: Growth inhibition of human M14 cells at 1 uM after 48 hrs by sulforhodamine B assay
SK-MEL-28 = assay: Growth inhibition of human SK-MEL-28 cells at 1 uM after 48 hrs by sulforhodamine B assay
IGROV-1 = assay: Growth inhibition of human IGROV1 cells at 1 uM after 48 hrs by sulforhodamine B assay
OVCAR-3 = assay: Growth inhibition of human OVCAR-3 cells at 1 uM after 48 hrs by sulforhodamine B assay
OVCAR-4 = assay: Growth inhibition of human OVCAR4 cells at 1 uM after 48 hrs by sulforhodamine B assay
NCI/ADR-RES = assay: Growth inhibition of human NCI/ADR-RES cells at 1 uM after 48 hrs by sulforhodamine B assay
OVCAR-8 = assay: Growth inhibition of human OVCAR8 cells at 1 uM after 48 hrs by sulforhodamine B assay
A498 = assay: Growth inhibition of human A498 cells at 1 uM after 48 hrs by sulforhodamine B assay
ACHN = assay: Growth inhibition of human ACHN cells at 1 uM after 48 hrs by sulforhodamine B assay
CAKI-1 = assay: Growth inhibition of human Caki1 cells at 1 uM after 48 hrs by sulforhodamine B assay
RXF 393 = assay: Growth inhibition of human RXF393 cells at 1 uM after 48 hrs by sulforhodamine B assay
SN12C = assay: Growth inhibition of human SN12C cells at 1 uM after 48 hrs by sulforhodamine B assay
TK-10 = assay: Growth inhibition of human TK10 cells at 1 uM after 48 hrs by sulforhodamine B assay
UO-31 = assay: Growth inhibition of human UO31 cells at 1 uM after 48 hrs by sulforhodamine B assay
786-0 = assay: Growth inhibition of human 786-0 cells at 1 uM after 48 hrs by sulforhodamine B assay
PC-3 = assay: Growth inhibition of human PC3 cells at 1 uM after 48 hrs by sulforhodamine B assay
DU-145 = assay: Growth inhibition of human DU145 cells at 1 uM after 48 hrs by sulforhodamine B assay
MCF7 = assay: Growth inhibition of human MCF7 cells at 1 uM after 48 hrs by sulforhodamine B assay
MDA-MB-231 = assay: Growth inhibition of human MDA-MB-231 cells at 1 uM after 48 hrs by sulforhodamine B assay
BT-549 = assay: Growth inhibition of human BT549 cells at 1 uM after 48 hrs by sulforhodamine B assay
T47D = assay: Growth inhibition of human T47D cells at 1 uM after 48 hrs by sulforhodamine B assay
MDA-MB-468 = assay: Growth inhibition of human MDA-MB-468 cells at 1 uM after 48 hrs by sulforhodamine B assay
Hs-578T = assay: Growth inhibition of human Hs 578T cells at 1 uM after 48 hrs by sulforhodamine B assay

Measured: growth inhibition (GI)

Nc1ncnc2c1N=C1c3ccccc3CCC1C(c1ccc(Cl)cc1)N2 (stereo unspecified)
active: all assays above

Nc1ncnc2c1N=C1c3ccccc3CCC1C(c1ccccc1)N2 (stereo unspecified)
active: all assays above
